Assay results published in paper PMC10714400, “Antimicrobial Peptide–Peptoid Hybrids with and without Membrane Disruption” (ACS Infectious Diseases, 2023).
Where a SMILES comes first, the peptide text is derived from it. [ ]: non-standard residue; d: D form. Nleu = CC(C)CNCC(=O)O; Nlys = NCCCCNCC(=O)O

What was measured:
[1] = tested on: E. coli W3110; assay: NPN outer membrane permeability assay; assay type: cell-based, Escherichia coli
Experimental: (§1) Figure 4 Interactions of peptide–peptoid hybrids with bacterial outer and inner membranes of E. coli. (a, b) NPN outer membrane permeability assay. E. coli W3110 bacteria were treated with increasing compound concentrations in the presence of 10 μM NPN. The fluorescence intensity (λex = 340 nm, λem = 415 nm) was measured within 5 min. Data represent mean ± SD, n = 3. (c, d) DiSC3(5) inner membrane depolarization assay. E. coli W3110 bacteria were treated with increasing compound concentrations in the presence of 2 μM DiSC3(5). The fluorescence intensity (λex = 610 nm, λem = 660 nm) was measured within 5 min after treatment, and the data represent mean ± SD, n = 3.
A single colony of P. aeruginosa PAO1 and E. coli W3110 was grown overnight while being shaken (150 rpm) in LB-broth (5 mL) at 37 °C. 100 μL of the overnight culture was regrown in 10 mL of LB broth with shaking (200 rpm) to the exponential phase (OD600 = 1, corresponding to 10^9 CFU/mL). Bacteria were washed three times with HEPES buffer (5 mM HEPES, 5 mM glucose, pH 7.4), but not diluted yet to their final concentration. 200 μL of peptide samples was added to the first well of 96-well plates (black wells, flat bottom, BRAND GmbH Wertheim, Germany), 100 μL of HEPES/glucose buffer with 10 μM N-phenyl-1-naphthylamine (NPN, purchased from Acros Organics) was added in all the wells, and the compounds were diluted serially by 1/2 (add a control with a final volume of 200 μL with 10 μM NPN in buffer only). Ca. 10 min before the measurement and the final dilution of the bacteria, the plates and the 10 μM NPN in HEPES/glucose buffer (for bacteria dilution) were incubated at 37 °C (prior to the dilution of the bacteria with buffer containing NPN 10 μM). Later, the bacteria were diluted to OD600 = 0.5 with the NPN in HEPES/glucose buffer. 100 μL of the bacterial suspension was added to each well. In this case, the final OD of bacteria was 0.25, the final concentration of the desired compound 64 μg/mL, and NPN 10 μM. The control wells are buffer containing NPN (10 μM, 200 μL) and bacterial suspension containing NPN in HEPES buffer. The plate was measured with a Tecan instrument Infinite M1000 within 5 min. The plate was enabled to shake for 5 s before measurement. The excitation wavelength used was 340 ± 5 nm, and emission wavelength was 415 ± 5 nm. The assay was repeated at least three times.

[2] = tested on: A549 cells; assay: Cell viability assay by Alamar blue; assay type: cell-based; conditions: CSV; read-out: Toxicity on A549 lung cancern cells
Experimental: The data are represented as the mean value ± SD, n = 3. […] (c) Vesicle leakage assay for a selection of compounds. Lipid vesicles made of EYPG or EYPC were suspended in a buffer (10 mM TRIS, 107 mM NaCl, pH 7.4). After 45 s, the indicated compound was added to reach the desired concentration. After 240 s, 30 μL of 1.2% TritonX-100 was added for full fluorescein release. […] See Supporting Information for the full curves, all of the data, and procedures.
HEK293 cells were cultured and maintained in DMEM high glucose (Dulbecco’s modified Eagle medium, Sigma Aldrich) medium supplemented with 10% FBS (Sigma Aldrich) and 1% penicillin/streptomycin. A549 cells were cultured and maintained in RPMI-1640 medium (Sigma Aldrich), supplemented with 10% FBS (Sigma Aldrich) and 1% penicillin/streptomycin. The cells were handled and subcultured according to the manufacturer instructions. Cells were incubated in a humidified incubator at 37 °C in the presence of 5% CO2.
Assays on HEK293, A549 cells were performed as described earlier.[74] […]

[3] = tested on: E. coli W3110; assay: DiSC3(5) inner membrane depolarization assay; assay type: cell-based, Escherichia coli; conditions: E. coli W3110, 2 μM DiSC3(5)
Experimental: as §1
A single colony of P. aeruginosa PAO1 and E. coli W3110 was grown overnight with shaking (150 rpm) in LB broth (5 mL) at 37 °C. A 100 μL portion of the overnight culture was regrown in 10 mL of LB broth with shaking (200 rpm) to the exponential phase (OD600 = 1, corresponding to 10^9 CFU/mL). Bacteria were washed once with HEPES buffer (5 mM HEPES, 5 mM glucose, pH 7.4) and diluted to an OD600 = 0.5. Stock solution of 10 mM of 3,3′-dipropylthiadicarbocyanine iodide (DiSC3(5), purchased from Sigma) was prepared in DMSO. Stock solutions of 2 mg/mL of the compounds were prepared in sterilized milli-Q water and diluted to the beginning concentration of 128 μg/mL in 200 μL of HEPES buffer containing 4 μM of the fluorescent probe DiSC3(5). The diluted samples were added to the first well of 96-well plates (black wells, flat bottom, BRAND GmbH Wertheim, Germany) and diluted serially by 1/2. 100 μL of the bacterial suspension in HEPES buffer (without fluorophore) was added to each well. In this case, the final OD of bacteria was 0.25, the final concentration of peptide in the first column was 64 μg/mL, and DiSC3(5) was 2 μM. The control wells are buffer containing DiSC3(5) and bacterial suspension containing DiSC3(5) in HEPES buffer. The plate was measured with a Tecan instrument Infinite M1000 within 5 min. […] The assay was measured in triplicate and repeated at least two times.[65],[75]

[4] = tested on: P. aeruginosa PAO1; assay: Bacterial count after treatment, before TEM sample preparation; assay type: cell-based, Pseudomonas aeruginosa; conditions: P. aeruginosa PAO1, […] MH pH 8.5, 10x MIC
Experimental: (§2) Just before the samples were further prepared for the microscopy, surviving bacteria were quantified by plating 10-fold dilutions of samples in sterilized normal saline (NaCl 0.9%) on LB agar plates. […] The assay was performed in triplicate. Each bacteria sample was centrifuged at 12,000 rpm for 3 min, and the supernatant was discarded. The samples were then further processed and imaged using our previously described protocol.[64]
8. Transmission electron microscopy (TEM)
Table S4: Bacterial counts, 2 hours after treatment, before TEM sample preparation. Data represents triplicates.
Bacteria count after treatment at 10x MIC and 2 h of incubation at 37 °C
Control (non-treated cells) 1 × 10^8 CFU (100)

[5] = tested on: P. aeruginosa PAO1; assay: Transmission electron microscopy (TEM); assay type: cell-based, Pseudomonas aeruginosa; conditions: P. aeruginosa PAO1, 10 × MIC, […] MH at pH 8.5, 2 h at 37 °C
Experimental: Scale bars are 500 nm and 1 μm. Red arrows: membrane perturbations. Blue arrows: intracellular aggregation. Yellow arrows: empty area within the cell.
as §2

| Compound | Outer membrane permeabilization (NPN) ([1]; not told) | IC50 [2] | Inner membrane depolarization (DiSC3(5)) [3] | Bacteria count after treatment at 10x MIC and 2 h of incubation at 37 °C (% of control) [4] | TEM micrographs, changes in treated bacteria [5] | Outer membrane permeabilization (NPN) ([1]; E. coli W3110, 10 μM NPN) |
| --- | --- | --- | --- | --- | --- | --- |
| CC(C)C[C@H](NC(=O)[C@H](CC(C)C)NC(=O)[C@H](CC(C)C)NC(=O)[C@H](CCCCN)NC(=O)[C@H](CC(C)C)NC(=O)[C@H](CC(C)C)NC(=O)CN(CCCCN)C(=O)[C@H](CC(C)C)NC(=O)[C@H](CC(C)C)NC(=O)CN(CCCCN)C(=O)CNCCCCN)C(N)=O [EB6, kkLLkLLKLLL] (H-[Nlys][Nlys]LL[Nlys]LLKLLL-NH2) | permeabilized the outer membrane | 19 ± 1 µM | strongly depolarized the inner membrane |  |  |  |
| CC(C)C[C@H](NC(=O)CN(CC(C)C)C(=O)[C@H](CC(C)C)NC(=O)CN(CCCCN)C(=O)[C@H](CC(C)C)NC(=O)CN(CC(C)C)C(=O)[C@H](CCCCN)NC(=O)CN(CC(C)C)C(=O)[C@H](CC(C)C)NC(=O)CN(CCCCN)C(=O)[C@@H](N)CCCCN)C(N)=O [EB9, KkLlKlLkLlL] (H-K[Nlys]L[Nleu]K[Nleu]L[Nlys]L[Nleu]L-NH2) | significant outer membrane permeabilization |  | partly depolarized the inner membrane | 0.01 % of control | aggregation of intracellular components as the major effect |  |
| CC(C)CN(CC(N)=O)C(=O)CN(CC(C)C)C(=O)CN(CC(C)C)C(=O)CN(CCCCN)C(=O)CN(CC(C)C)C(=O)CN(CC(C)C)C(=O)CN(CCCCN)C(=O)CN(CC(C)C)C(=O)CN(CC(C)C)C(=O)CN(CCCCN)C(=O)CNCCCCN [EB11, kkllkllklll] (H-[Nlys][Nlys][Nleu][Nleu][Nlys][Nleu][Nleu][Nlys][Nleu][Nleu][Nleu]-NH2) |  |  | partly depolarized the inner membrane |  |  | significant outer membrane permeabilization |
| H-KKLLKLLKLLL-NH2 [ln65, reference compound] |  | 20 ± 1 µM |  | 0.01 % of control | strong membrane-disruptive activity |  |
| CC(C)C[C@H](NC(=O)[C@H](CCCCN)NC(=O)CNCCCCN)C(=O)N[C@@H](CC(C)C)C(=O)N[C@@H](CCCCN)C(=O)N[C@@H](CC(C)C)C(=O)N[C@@H](CC(C)C)C(=O)N[C@@H](CCCCN)C(=O)N[C@@H](CC(C)C)C(=O)N[C@@H](CC(C)C)C(=O)N(CC(N)=O)CC(C)C [EB1] (H-[Nlys]KLLKLLKLL[Nleu]-NH2; N-terminus assumed) |  | 69 ± 2 µM |  |  |  |  |
| CC(C)C[C@H](NC(=O)[C@H](CC(C)C)NC(=O)[C@H](CC(C)C)NC(=O)[C@H](CCCCN)NC(=O)[C@H](CC(C)C)NC(=O)[C@H](CC(C)C)NC(=O)CN(CCCCN)C(=O)CN(CC(C)C)C(=O)CN(CC(C)C)C(=O)CN(CCCCN)C(=O)CNCCCCN)C(N)=O [EB5, kkllkLLKLLL] (H-[Nlys][Nlys][Nleu][Nleu][Nlys]LLKLLL-NH2) | permeabilized the outer membrane |  |  |  |  |  |
| CC(C)C[C@H](NC(=O)[C@H](CC(C)C)NC(=O)[C@H](CC(C)C)NC(=O)[C@@H](CCCCN)NC(=O)[C@H](CC(C)C)NC(=O)[C@H](CC(C)C)NC(=O)[C@@H](CCCCN)NC(=O)[C@H](CC(C)C)NC(=O)[C@H](CC(C)C)NC(=O)[C@@H](CCCCN)NC(=O)[C@H](N)CCCCN)C(N)=O [ln69, kkLLkLLkLLL, reference compound] (H-[dK][dK]LL[dK]LL[dK]LLL-NH2) |  | 21 ± 3 µM |  |  |  |  |
